According to patent publication US9073895B2 (Boehringer Ingelheim International GmbH, priority 2010, dated 2015):

Key:
[1] = biological target: T1, recombinant human FLAP protein (Homo sapiens, UniProt P20292); experiment: FLAP binding assay (SPA, displacement of [125I]L-691,831); conditions: membranes of sf9 cells expressing human FLAP, [125I]L-691,831 probe; read-out: hFLAP binding IC50
T1 construct: made in house; host or cells: Sf9 insect cells (membrane fraction, 100,000 x g pellet)
T1 sequence (P20292 1-161): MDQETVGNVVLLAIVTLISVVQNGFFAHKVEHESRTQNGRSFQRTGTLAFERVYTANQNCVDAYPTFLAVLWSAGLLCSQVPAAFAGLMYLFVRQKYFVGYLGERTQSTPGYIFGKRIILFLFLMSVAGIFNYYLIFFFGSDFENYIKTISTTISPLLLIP
Description: Compounds are assessed for the ability to bind to FLAP in a binding assay that measures compound-specific displacement of an iodinated (^125I) FLAP inhibitor via a Scintillation Proximity Assay format (adapted from S. Charleson et al., Mol. Pharmacol., 1992, 41, 873-879).
Cell pellets produced from sf9 insect cells expressing recombinant human FLAP protein are resuspended in buffer A [15 mM Tris-HCl (pH 7.5), 2 mM MgCl2, 0.3 mM EDTA, 1 mM PMSF]. The cells are lysed with a Dounce homogenizer and the material is centrifuged at 10,000×g for 10 minutes. The supernatant is then collected and centrifuged at 100,000×g for 60 minutes. To prepare membrane protein for an assay, an aliquot of the 100,000×g pellet is resuspended in 1 ml of buffer A, Dounce homogenized, and finally subjected to polytron mixing (30 seconds). Membrane protein (25 μl, 5 μg) is mixed with WGA SPA beads (Amersham) and stirred for 1 h. To an assay plate (Perkin Elmer FlexiPlate) is added 25 μl of test compound prepared in Binding buffer [100 mM Tris (pH 7.5), 140 mM NaCl, 5% glycerol, 2 mM EDTA, 0.5 mM TCEP, 0.05% Tween 20], 25 μl of [^125I]L-691,831 (an iodinated analog of MK-591, Charleson et al. Mol. Pharmacol., 41, 873-879, 1992) and finally 50 μl of the bead/protein mixture. (final concentrations: beads, 200 μg/well; protein, 5μg/well; [^125I] probe, 0 08 nM/well(17 nCi/well). The plates are shaken for 2 h before reading on a Microbeta plate reader. Non-specific binding is determined by the addition of 10 μM cold L-691,831 compound.

[2] = test system: synthesis of LTB4 in human whole blood; experiment: Human whole blood LTB4 production inhibition assay; type: cell-based; conditions: heparinized human whole blood, calcimycin 20 μM, plasma LTB4; read-out: HuWB IC50
Description: Compounds are additionally tested in a human whole blood assay to determine their ability to inhibit the synthesis of LTB4 in a cellular system. Compounds are combined with heparinized human whole blood and incubated for 15 minutes at 37° C. Calcimycin (20 μM final, prepared in phosphate-buffered saline, pH 7.4) is then added and the mixture is incubated for another 30 minutes at 37° C. The samples are centrifuged for 5 min at low speed (1500×g) and the plasma layer is removed. Plasma LTB4 concentrations are then measured using an antibody-based homogenous time-resolved fluorescence method (CisBio, Bedford, Mass.).

| Structure (SMILES) | IC50 [1] [nM] | IC50 [2] [nM] |
| --- | --- | --- |
| Cc1nc(-c2ccc(NC(=O)C3(c4ccc(-c5ccc(N)nc5)cc4)CCOCC3)nc2)cs1 [Example 191, 4-[4-(6-aminopyridin-3-yl)phenyl]-N-[5-(2-methyl-1,3-thiazol-4-yl)pyridin-2-yl]tetrahydro-2H-pyran-4-carboxamide] | 27.5 | 1950 |
| Nc1ncc(-c2ccc(C3(C(=O)Nc4ccc(Oc5ccc(Cl)cc5)cc4)CCOCC3)cc2)cn1 [Example 63, 4-[4-(2-aminopyrimidin-5-yl)phenyl]-N-[4-(4-chlorophenoxy)phenyl]tetrahydro-2H-pyran-4-carboxamide] | 30.5 | 812 |
| COC(=O)c1ccc(NC(=O)C2(c3ccc(-c4cnc(N)nc4)cc3)CCC2)nc1 [Example 95, methyl 6-[({1-[4-(2-aminopyrimidin-5-yl)phenyl]cyclobuyl}carbonyl)amino]pyridine-3-carboxylate] | 2.35 | 202 |
| CS(=O)(=O)c1ccc(NC(=O)C2(c3ccc(-c4cnc(N)nc4)nc3)CCC2)cc1 [Example 99, 1-[6-(2-aminopyrimidin-5-yl)pyridin-3-yl]-N-[4-(methylsulfonyl)phenyl]cyclobutane-carboxamide] | 45.5 | 570 |
| COc1ncc(-c2ccc(C(C)(C(=O)Nc3ccc(-c4csc(C)n4)cc3)C(C)C)cc2)cn1 (stereo not drawn) [Example 116, 2-[4-(2-methoxypyrimidin-5-yl)phenyl]-2,3-dimethyl-N-[4-(2-methyl-1,3-thiazol-4-yl)phenyl]butanamide] | 430 | 10800 |
| COc1ccc(NC(=O)C2(c3ccc(-c4cnc(N)nc4)cc3)CCOCC2)cc1Cl [Example 14, 4-[4-(2-aminopyrimidin-5-yl)phenyl]-N-(3-chloro-4-methoxyphenyl)tetrahydro-2H-pyran-4-carboxamide] | 8.95 | 2250 |
| Nc1ncc(-c2ccc(C3(C(=O)Nc4ccc(Oc5ccccc5)cn4)CCOCC3)cc2)cn1 [Example 173, 4-[4-(2-aminopyrimidin-5-yl)phenyl]-N-(5-phenoxypyridin-2-yl)tetrahydro-2H-pyran-4-carboxamide] | 18 | 930 |
| Cc1nnnn1-c1ccc(NC(=O)C2(c3ccc(-c4cnc(N)nc4)cc3)CCOCC2)cc1 [Example 4, 4-[4-(2-aminopyrimidin-5-yl)phenyl]-N-[4-(5-methyl-1H-tetrazol-1-yl)phenyl]tetrahydro-2H-pyran-4-carboxamide] | 38.5 | 808 |
| Nc1ncc(-c2ccc(C3(C(=O)Nc4ccc(-c5cn[nH]c5)cn4)CCC3)cc2)cn1 [Example 104, 1-[4-(2-aminopyrimidin-5-yl)phenyl]-N-[5-(1H-pyrazol-4-yl)pyridin-2-yl]cyclobutanecarboxamide] | 1.95 | 155 |
| Nc1ncc(-c2ccc(C3(C(=O)Nc4cccc(-c5cnco5)c4)CCOCC3)cc2)cn1 [Example 26, 4-[4-(2-aminopyrimidin-5-yl)phenyl]-N-[3-(1,3-oxazol-5-yl)phenyl]tetrahydro-2H-pyran-4-carboxamide] | 26 | > 3000 |
| Cn1ncnc1-c1ccc(NC(=O)C2(c3ccc(-c4cnc(N)nc4)cc3)CCC2)nc1 [Example 103, 1-[4-(2-aminopyrimidin-5-yl)phenyl]-N-[5-(1-methyl-1H-1,2,4-triazol-5-yl)pyridin-2-yl]cyclobutanecarboxamide] | 4.1 | 102 |
| N#Cc1ccc(NC(=O)C2(c3ccc(-c4cnc(N)c(CO)c4)cc3)CCOCC2)nc1 [Example 179, 4-{4-[6-amino-5-(hydroxymethyl)pyridin-3-yl]phenyl}-N-(5-cyanopyridin-2-yl)tetrahydro-2H-pyran-4-carboxamide] | 24.7 | 388 |
| Nc1ncc(-c2ccc(C3(C(=O)Nc4ccc5c(c4)OCO5)CCOCC3)cc2)cn1 [Example 9, 4-[4-(2-aminopyrimidin-5-yl)phenyl]-N-(1,3-benzodioxol-5-yl)tetrahydro-2H-pyran-4-carboxamide] | 200 | – |
| Nc1ncc(-c2ccc(C3(C(=O)Nc4n[nH]c(-c5ccccc5)n4)CCC3)cc2)cn1 [Example 243, 1-[4-(2-aminopyrimidin-5-yl)phenyl]-N-(5-phenyl-1H-1,2,4-triazol-3-yl)cyclobutanecarboxamide] | 22 | – |
| Nc1ncc(-c2ccc(C3(C(=O)Nc4ccc(Cc5ccncc5)cc4)CCOCC3)cc2)cn1 [Example 28, 4-[4-(2-aminopyrimidin-5-yl)phenyl]-N-[4-(pyridin-4-ylmethyl)phenyl]tetrahydro-2H-pyran-4-carboxamide] | 121 | – |
| Nc1ncc(-c2ccc(C3(C(=O)Nc4cccc(S(=O)(=O)N5CCOCC5)c4)CCOCC3)cc2)cn1 [Example 35, 4-[4-(2-aminopyrimidin-5-yl)phenyl]-N-[3-(mopholin-4-ylsulfonyl)phenyl]tetrahydro-2H-pyran-4-carboxamide] | 390 | – |
| CCOC(=O)c1ccnc(NC(=O)C2(c3ccc(-c4cnc(N)nc4)cc3)CCOCC2)c1 [Example 84, ethyl 2-[({4-[4-(2-aminopyrimidin-5-yl)phenyl]tetrahydro-2H-pyran-4-yl}carbonyl)amino]pyridine-4-carboxylate] | 180 | – |
| Cc1cccc(-c2cnc(NC(=O)C3(c4ccc(-c5cnc(N)nc5)cc4)CCOCC3)nc2)c1 [Example 156, 4-[4-(2-aminopyrimidin-5-yl)phenyl]-N-[5-(3-methylphenyl)pyrimidin-2-yl]tetrahydro-2H-pyran-4-carboxamide] | 490 | – |
| Cc1ccnc(NC(=O)C2(c3ccc(-c4cnc(N)nc4)cc3)CCOCC2)c1 [Example 140, 4-[4-(2-aminopyrimidin-5-yl)phenyl]-N-(4-methylpyridin-2-yl)tetrahydro-2H-pyran-4-carboxamide] | 230 | – |
| Cc1cc(C)nc(NC(=O)C2(c3ccc(-c4cnc(N)nc4)cc3)CCOCC2)c1 [Example 10, 4-[4-(2-aminopyrimidin-5-yl)phenyl]-N-(4,6-dimethylpyridin-2-yl)tetrahydro-2H-pyran-4-carboxamide] | 240 | – |
| CC(=O)N1CCc2ccc(NC(=O)C3(c4ccc(-c5cnc(N)nc5)cc4)CCOCC3)cc21 [Example 29, N-(1-acetyl-2,3-dihydro-1H-indol-6-yl)-4-[4-(2-aminopyrimidin-5-yl)phenyl]tetrahydro-2H-pyran-4-carboxamide] | 190 | – |
| CN(C)S(=O)(=O)c1cccc(NC(=O)C2(c3ccc(-c4cnc(N)nc4)cc3)CCOCC2)c1 [Example 77, 4-[4-(2-aminopyrimidin-5-yl)phenyl]-N-[3-(dimethylsulfamoyl)phenyl] tetrahydro-2H-pyran-4-carboxamide] | 110 | – |
| Nc1ncc(-c2ccc(C3(C(=O)Nc4cccc(S(=O)(=O)C(F)(F)F)c4)CCOCC3)cc2)cn1 [Example 44, 4-[4-(2-aminopyrimidin-5-yl)phenyl]-N-{3-[(trifluoromethyl)sulfonyl]phenyl}tetrahydro-2H-pyran-4-carboxamide] | 270 | – |
| CC(=O)Nc1ccc(-c2ccc(C3(C(=O)Nc4ccc(-c5csc(C)n5)cn4)CCOCC3)cc2)cn1 [Example 206, 4-{4-[6-(acetylamino)pyridin-3-yl]phenyl}-N-[5-(2-methyl-1,3-thiazol-4-yl)pyridin-2-yl]tetrahydro-2H-pyran-4-carboxamide] | 270 | – |
| Nc1ncc(-c2ccc(C3(C(=O)Nc4ccc(N5CCOCC5)cc4)CCC3)cc2)cn1 [Example 246, 1-[4-(2-aminopyrimidin-5-yl)phenyl]-N-[4-(morpholin-4-yl)phenyl]cyclobutanecarboxamide] | 34 | – |
| CN1CCN(c2cccc(NC(=O)C3(c4ccc(-c5cnc(N)nc5)cc4)CCOCC3)c2)CC1 [Example 53, 4-[4-(2-aminopyrimidin-5-yl)phenyl]-N-[3-(4-methylpiperazin-1-yl)phenyl]tetrahydro-2H-pyran-4-carboxamide] | 280 | – |
| CS(=O)(=O)NC(=O)c1ccc(NC(=O)C2(c3ccc(-c4cnc(N)nc4)cc3)CCC2)nc1 [Example 105, 6-[({1-[4-(2-aminopyrimidin-5-yl)phenyl]cyclobutyl}carbonyl)amino]-N-(methylsulfonyl)pyridine-3-carboxamide] | 17.5 | – |
